Experiments:
MC38 allograft = experiment: MC38 allograft, Compound 1 and anti-PD-L1 combination in vivo; design: species or system mouse; details: Cmpd1 + αPD-L1; did not reach significance vs single-agent PD-L1
B16F10 MDOTS = experiment: Bead-based cytokine profiling of B16F10 MDOTS; format: cell-based, murine; details: Cmpd1 (1 μM) ± αPD-1
Procedure: (§1) Fresh tumor specimens (murine and human patients) were received in media (DMEM) on ice and minced in a 10 cm dish (on ice) using sterile forceps and scalpel. Minced tumor was resuspended in DMEM ([…], […] sodium pyruvate, 1:100 penicillin-streptomycin) (Corning CellGro, Manassas, Va.) +10% FBS (Gemini Bio-Products, West Sacramento, Calif.), 100 U/mL collagenase type IV (Life Technologies, Carlsbad, Calif.), and 15 mM HEPES (Life Technologies, Carlsbad, Calif.), except for CT26 tumors that were prepared in RPMI. Samples were pelleted and resuspended in 10-20 mL media. Red blood cells were removed from visibly bloody samples using RBC Lysis Buffer (Boston Bio-Products, Ashland, Mass.). […]
(§2) Two multiplex assays were performed utilizing a bead-based immunoassay approach, the Bio-Plex Pro™ Human Cytokine 40-plex Assay (Cat #171AK99MR2) and Bio-Plex Pro™ Mouse Cytokine Panel 1, 23-plex (Cat #M60009RDPD) on a Bio-plex 200 system (Cat #171000201). […] Fold changes relative to the MDOT/PDOT control were calculated and plotted as log 2FC. Lower and upper limits of quantitation (LLOQ/ULOQ) were imputed from standard curves for cytokines above or below detection. […]

[1] = tested on: CT26 spheroids lacking immune cells; experiment: Viability of CT26 spheroids lacking immune cells; format: cell-based
Procedure: as §1
Dual labeling was performed by loading microfluidic device with Nexcelom ViaStain™ AO/PI Staining Solution (Nexcelom, CS2-0106). Following incubation with the dyes (20 minutes at room temperature in the dark), images were captured on a Nikon Eclipse 80i fluorescence microscope equipped with Z-stack (Prior) and CoolSNAP CCD camera (Roper Scientific). […] Live and dead cell quantitation was performed by measuring total cell area of each dye. […]

[2] = tested on: CT26 spheroids (lacking immune cells); experiment: Bead-based cytokine profiling of CT26 spheroids lacking immune cells; format: cell-based, murine; details: Day 1, 3, and 6
Procedure: as §1, §2

N#Cc1cc(-c2ncnc(Nc3ccc(N4CCN(C5COC5)CC4)cc3)n2)ccc1OC1CCOCC1 [Compound 1, 5-(4-((4-(4-(oxetan-3-yl)piperazin-1-yl)phenyl)amino)-1,3,5-triazin-2-yl)-2-((tetrahydro-2H-pyran-4-yl)oxy)benzonitrile]
in vivo survival, MC38 model, combination treatment (MC38 allograft): enhanced | immune suppressive chemokines (e.g., CCL2, CCL5) in B16F10 MDOTS (B16F10 MDOTS): downregulation | induction of G-CSF and related innate immune response cytokines in B16F10 MDOTS (B16F10 MDOTS): without concomitant induction | cytotoxic effects on CT26 cell line spheroids (viability) [1]: without cytotoxic effects | immune suppressive cytokine elaboration by CT26 cell line spheroids [2]: effectively blocked
